Assay results published in patent US10782294B2, “Peptides derived from myosin 19 and methods of use thereof” (TECHNION RESEARCH & DEVELOPMENT FOUNDATION LIMITED, priority 2014, dated 2020).
“Also recorded” adds a separate entry of the source. Read-outs that look alike come from different tables or passages of the source. Values belong to the molecule of their own block, whether it stands above or below them.

Key:
[1] = system: Myo19-eGFP expressing U2OS cells; experiment: Myo19 foci formation / translocation to cell periphery in Myo19-eGFP expressing cells treated with cytoskeleton interfering drugs; type: cell-based
Procedure: Cells were rinsed once and incubated in starvation medium (Glucose free DMEM supplemented with 20 mM Hepes-KOH pH 7.4, 5 mg/ml BSA, 100 U/ml penicillin, 100 μg/ml streptomycin and 0.25 μg/ml amphotericin B). Cytoskeleton interfering drugs (final concentration: 0.2 μM Latrunculin B or 0.75 μg/ml Nocodazole) were first diluted in growth media and then added to the cells.
(§1) Transfections were performed using Polyethylenimine (PEI). Adherent U2OS cells were plated a day before transfection on plastic or glass bottom dishes and allowed to adhere overnight (ON). Plasmid DNA and PEI were diluted separately in 150 mM NaCl, combined and complex formation was allowed for 25 min at RT before addition to the cells and incubation ON. Hoechst 33342 (0.75 μg/ml Sigma), MitoTracker (30 nM, Molecular probes) and Propidium iodide (1 μg/ml, Sigma) were added 15 min prior to imaging. HaloTag constructs were stained by incubating the cells with HaloTag TMR Ligand ON (25 nM, Promega). The cells were imaged using InCell Analyzer 2000, Confocal Zeiss LSM 700 or Confocal Zeiss LSM 710 in an environmental chamber.
Mitochondria function as an intracellular biosensor that responds to environmental changes, stress cues and physiological stimuli. Therefore, it is essential to test the function of myosin 19 and its relation to mitochondrial distribution and morphology in cells under starvation conditions as well under drugs, which disrupt cytoskeletal structures. Starvation stress was chosen because it strongly shifts mitochondrial dynamics of fission and fusion, inducing hyperfusion of the mitochondrial network, and that fission and fusion depend on force generation on the mitochondria. Therefore, it was assessed whether or not starvation-induced hyperfusion is accompanied by any differential cellular localization of myosin 19. Myosin 19-eGFP was overexpressed and cells were starved for four hrs. […] The inventors further tested if myosin 19 OMM binding motif is essential for this starvation-induced localization (FIG. 3A, middle two panels). […] This lends further support to the interpretation that myosin 19^Δ860-890-eGFP cannot compete with the endogenous myosin 19 because of its inability to bind the mitochondria. The inventors further assessed whether this transition of myosin 19 to the cell periphery requires myosin 19 motor activity utilizing an overexpression of myosin 19 tail (FIG. 3A, bottom two panels, FIG. 8) and an ATPase dead mutant G 135R (FIG. 9, FIG. 8). […] Indeed, pre-treatment of cells with 0.2 μM Latrunculin B that disrupts actin filaments of the cytoskeleton for 30 min inhibited the starvation-induced translocation of myosin 19 and the mitochondria to the cell periphery (FIG. 3B, FIG. 10). […]

[2] = target: lipid SUVs with a phospholipid composition similar to the OMM (55% PC, 30% PE, 13% PI, 2% DOPS); experiment: Equilibrium binding of peptides to OMM mimicking vesicles by fluorescence anisotropy
Procedure: (§2) Phosphatidylcholine (PC, Sigma), Phosphatidylethanolamine (PE, Sigma), Phosphatidylinositol (PI, Sigma) and Dioleoyl phosphatidylserine (DOPS, Avanti) were mixed in chloroform and evaporated under nitrogen. The vesicles were then resuspended in 40 mM Hepes pH 7.1, 150 mM NaCl and subjected to 10 freeze-thaw cycles in liquid nitrogen and kept in −80° C. The vesicles were thawed and sonicated for five min at low intensity; insoluble material was removed by centrifugation at 100,000×gav for 20 min. Vesicles were used within two days after sonication.
(§3) Equilibrium binding by Fluorescence Anisotropy (FA) measurements was performed with PCI spectrofluorimeter (ISS, Champaign, Ill.) designed as T-format for simultaneous acquisition on two emission channel monochromators equipped with automatic polarizers. Samples were equilibrated (60 min, RT) and then measurements were done with intrinsic fluorescence of the peptide with λex=280 nm using vertical polarized light and the emitted vertical and horizontal polarized light was monitored at 90° with double emission monochromators at λem=325 nm. (i-factor for correction of the different gain between the dual PMT detectors was calculated as described by the instrument manufacturer. The binding model for a simple bimolecular reaction was:
[formula] [formula] Under the condition of Ptot<<KD then the general solution for this equilibrium binding scheme is in the form of the following quadratic equation:
[formula] Ptot is monitoring species; Vtot is titrating species and [PV] is the bound species. The total fluorescence and anisotropy were fitted globally (Origin Lab 9.0) according to Otto et al. Biophys J, 1994. 67(6): p. 2511-21.
Myo19 peptides were purchased as crude preparations and resuspended in 10% Acetonitrile (ACN) and either 0.1% (for Myo19^851-895) or 0.01% (for Myo19^858-883 and Myo19^858-RK883SS) trifluoroacetic acid (TFA). The peptides were then loaded on a C-18 column (Waters) and separated by reverse phase chromatography. Peaks were analyzed by MALDI-TOF and verified to be of the right molecular weight corresponding to the peptide size. The peptides were then dried and resuspended in either 5% DMF (Myo19^858-883 and Myo19^RK883SS) or 16% DMF (Myo19^851-895) in binding buffer (40 mM Hepes pH 7.1, 150 mM NaCl). Myo19^851-895, Myo19^858-883, Myo19^858-RK883SS peptides were from GL Biochem (Shanghai, China). Zeta1 was from Sigma (Saint Louis, Mo., USA).
To characterize Myo19 membrane binding motif, the binding of a synthetic peptide representing Myo19 residues 851-895 (SEQ ID NO: 12, Table 3) to lipid SUVs (Small unilamellar vesicles) with a phospholipid composition similar to the OMM (55% PC, 30% PE, 13% PI, 2% DOPS (de Kroon et al., 1997)) was tested. Binding was followed via fluorescence anisotropy (FA) relying on two tryptophan residues that are present in the peptide. […] Equilibrium binding of Myo19 peptide to vesicles was monitored by titrating peptide versus increasing vesicles concentration. […] Therefore, to account for the FTI change during the FA measurements, global fitting to both signals arising from peptide binding to vesicles to compensate for the change in fluorescence yield during FA measurements was applied. […] In-vitro binding of a hydrophilic peptide Zeta1 (SEQ ID NO:15, Table 3), was much weaker (˜2.5 folds) compared to the Myo19 peptide (124.4±18.7 μM), supporting the notion that Myo19-OMM binding is mediated by hydrophobic interactions (FIG. 23). Although our newly identified membrane motif is essential and sufficient for OMM localization in cells, the cellular specificity may be achieved by unique, yet unidentified cytosolic or others mitochondrial components.

[3] = target: ER mimicking vesicles (20% PE, 66 & PC, 9% PI, 3% DOPS); experiment: Equilibrium binding of peptides to ER mimicking vesicles by fluorescence anisotropy; settings: FA/FTI global fit; peptide concentrations 4 μM; N=1; read-out: affinity to ER mimicking vesicles
Procedure: as §2, §3
[formula] […]

[4] = system: mitochondria (MitoTracker) or ER; experiment: Colocalization of eGFP-fused myosin 19 tail constructs with mitochondria (MitoTracker) or ER (SRβ); type: cell-based; settings: myosin 19^824-970-eGFP and mutant variants ectopically expressed
Procedure: Generation of peGFP-myosin 19 mutations and truncations were performed using high fidelity PCR enzymes with phosphorylated primers (Phusion, T4 PNK, NEB). We used peGFP-myosin 19 (peGFP-N1b was kindly provided by Dr. Ayoub (Technion-IIT)) or peGFP-myosin 19 tail (aa 824-970) as template with a single exception for peGFP-myosin 19^860-890 where peGFP-myosin 19^860-970 was used. The products were ligated using T4 ligase (NEB, Promega) and sequenced.
as §1
In accordance to the finding in the cells (FIG. 2A), Myo19^860-890-eGFP was co-purified with mitochondria, however unlike the endogenous Myo19, it appears to be more sensitive to extraction by salt. Carbonate completely extracts Myo19^860-890-eGFP from purified mitochondria, similarly to endogenous Myo19 (FIG. 22). The difference in salt sensitivity may be due to insufficient length of the motif to be fully anchored in the membrane as in the WT endogenous protein. Another possibility is that a certain part of Myo19^860-890-eGFP was correctly anchored, where the rest was present there nonspecifically, e.g. through dimerization of eGFP. […] To further explore the OMM targeting the motif sequence was examined. Although there is no consensus sequence targeting proteins to the OMM, it was shown that a moderately hydrophobic motif flanked by positive residues is required for OMM localization. […]

[5] = FA/FTI global fit, peptide concentrations 4 μM, N=1, read-out: affinity to OMM mimicking vesicles

Molecule: C/C1=C/C(=O)O[C@@H]2C[C@@H](CC[C@H](C)/C=C\CC1)O[C@@](O)([C@@H]1CSC(=O)N1)C2 [Latrunculin B]
cells showing <2 Myo19 foci ([1]; 0.2 μM latrunculin B 30 min prior to starvation): < 30 % of the cells
starvation-induced translocation of myosin 19 and the mitochondria to the cell periphery ([1]; 0.2 μM, 30 min pre-treatment, then starvation): inhibited

Molecule: COC(=O)Nc1nc2ccc(C(=O)c3cccs3)cc2[nH]1 [nocodazole]
localization of myosin 19 and mitochondria after nocodazole treatment ([1]; 0.75 μg/ml nocodazole for three hrs, no starvation): induced the same altered localization
cells with induced Myo19 foci formation ([1]; nocodazole treatment, complete media conditions): > 80 % of the cells

Kd [2, 5]: 45 ± 14.1 µM
Kd [3]: 50.5 ± 22 µM
Molecule: EAIIRLWPLGLVLANTAMGVGSFQRK [Myo19^858-883, shorter peptide derived from Myo19 membrane motif]

Kd [2, 5]: 49 ± 17.2 µM
Molecule: EAIIRLWPLGLVLANTAMGVGSFQSS [Myo19^858-RK882/3SS, corresponding ER mutant of the shorter Myo19 peptide]

Molecule: FRWGKPVGKKRRPVKVYPNGAEDESAEAFPLE [Zeta1, reference compound]
Kd [2, 5]: 124 ± 18.7 µM
binding weaker compared to the Myo19 peptide ([2]; Zeta1 versus Myo19 peptide): ~2.5 folds

Molecule: IIRL*WPLGLVLANTAMGVGSF*QSSLVVWACL (IIRLWPLGLVLANTAMGVGSFQSSLVVWACL) [RK882/3SS, myosin 19 tail-eGFP construct with R882S and K883S in combination]
Localization ([4]; listed as SEQ ID NO: 10): shift of the intracellular localization of Myo19 to the ER

Molecule: IIRL*WVLGLVLANTAMGVGSF*QRKLVVWACL (IIRLWVLGLVLANTAMGVGSFQRKLVVWACL) [Peptide P865V, myosin 19 tail-eGFP construct with point mutation P865V]
Localization [4]: dual localization to both the ER and the mitochondria; also recorded: ER/Mito-

effect of [NaCl] on the magnitude of binding to vesicles ([2]; [NaCl] up to 1 M, peptide and vesicles 35 μM each): no effect
Kd ([2]; global fit of FA and FTI, peptide concentration 35 μM, 40 mM Hepes pH 7.1, 150 mM NaCl, read-out: apparent binding constant KD): 281 ± 50 µM
Molecule: PLQTRLLEAIIRLWPLGLVLANTAMGVGSFQRKLVVWACLQLPRG [Myo19^851-895, synthetic peptide representing Myo19 residues 851-895]

B1: IIRL*WPLGLVLANTAMGVGSF*QRKLVVWACL (protein, UniProt Q96H55 824-970, looked up, fragment)
chain: MACLAAKELDGVEEKHFSQAPCSLSTSPLQTRLLEAIIRLWPLGLVLANTAMGVGSFQRKLVVWACLQLPRGSPSSYTVQTAQDQAGVTSIRALPQGSIKFHCRKSPLRYADICPEPSPYSITGFNQILLERHRLIHVTSSAFTGLG
modifications: eGFP fusion
Localization [4]: Mito-
